Results taken from publication PMC8847695 (Frontiers in Chemistry, 2022).

Columns and labels:
Type in all cases: binding
Settings in all cases: 1 = hit, 0 = no hit
IDO1 (1-435) = biological target: T1, IDO1 (1-435) (Homo sapiens, UniProt P14902); assay: STD-NMR fragment screening, IDO1
T1 construct: His-tag of pET15b with TEV site (thrombin site replaced) (cleaved yes); made in house; host or cells: E. coli Rosetta 2 (DE3) pLysS
Method: (§1) All fragments were stored at −20°C as solids in argon flushed glass bottles. For NMR screening, fragments were weighed and dissolved in DMSO-d6 to a stock concentration of 300 mM. Mother plates were prepared with a 100 mM concentration. From these plates, daughter plates were prepared with the fragments mixed in the plates to a concentration of 50 mM for each fragment. Daughter plates were opened a maximum of eight times. The plates were argon flushed and sealed with a HT121TS (HTA) and Foil Heat Seal (Biozym).
(§2) For long time measurements, like the protein ^1H NMR spectrum, the buffer exchange was performed twice to reduce residual buffer peaks. All experiments were performed on a Bruker Avance III HDX 700 instrument, equipped with a 5 mm Prodigy TCI cryo-probehead. For every protein, a standard ^1H NMR experiment with 1 k scans and water suppression through presaturation was performed. […] The on-resonance frequency, which was determined from the ^1H NMR spectra of the protein, was between 0.5 and 0.6 ppm; 40 ppm was used as the off-resonance frequency. For an interleaved acquisition of the on- and off-resonance, a pseudo-2D scheme was applied. The saturation was done by Gaussian pulses with a length of 50 ms and 60 dB of attenuation, with an interpulse delay of 1 ms leading to an excitation bandwidth of about 42 Hz. The screening was done with 16 scans of on- and off-resonance scans each, with a 3 s saturation time. The samples contained final concentrations of 20 µM protein, 10% (^V/V) DMSO-d6, and 1 mM of each of the two fragments. A ^1H-NMR experiment was performed for each compound to act as a reference spectrum in the STD experiments. All NMR experiments were carried out at 25°C.
(§3) Fifteen of these compounds contain the same halogen twice. No compound bears mixtures of different halogen atoms. Four proteins (AAK1, CAMK1G, IDO1, and DOT1L) were screened against this HEFLib using STD-NMR. A fragment was considered a hit if the peak intensity in the difference spectrum was three times higher than the local background noise. […] Chemical compatibility and peak complementarity were assured for these mixtures. Samples containing more than two fragments were avoided to minimize the possible target competition and to decrease the risk of fragment interactions. […] The ^1H reference NMR spectrum of the mixture is shown in red for comparison. […] As fragment mixtures can lead to competitive effects between their fragments, it is not advised to use the quantification of peak mixtures for hit ranking.

CAMK1G (1-320) = biological target: T2, CAMK1G (1-320) (Homo sapiens, UniProt Q96NX5); assay: STD-NMR fragment screening, CAMK1G
T2 construct: made in house; host or cells: E. coli BL21 (DE3) pLysS
T2 sequence (Q96NX5 1-320): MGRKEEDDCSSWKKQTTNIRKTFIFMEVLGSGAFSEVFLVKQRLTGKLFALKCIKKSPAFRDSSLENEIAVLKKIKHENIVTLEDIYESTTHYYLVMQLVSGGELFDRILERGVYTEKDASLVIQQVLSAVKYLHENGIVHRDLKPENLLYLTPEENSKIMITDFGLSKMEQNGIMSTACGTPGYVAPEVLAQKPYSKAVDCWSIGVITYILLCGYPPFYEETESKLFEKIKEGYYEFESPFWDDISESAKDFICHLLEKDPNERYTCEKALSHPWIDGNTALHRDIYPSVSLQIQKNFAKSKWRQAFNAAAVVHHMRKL
Method: as §1, §2, §3

AAK1 (121-471) = AAK1 (121-471) (Homo sapiens, UniProt Q2M2I8); assay: STD-NMR fragment screening, AAK1
Sequence of AAK1 (121-471) (Q2M2I8 46-315 limits assumed): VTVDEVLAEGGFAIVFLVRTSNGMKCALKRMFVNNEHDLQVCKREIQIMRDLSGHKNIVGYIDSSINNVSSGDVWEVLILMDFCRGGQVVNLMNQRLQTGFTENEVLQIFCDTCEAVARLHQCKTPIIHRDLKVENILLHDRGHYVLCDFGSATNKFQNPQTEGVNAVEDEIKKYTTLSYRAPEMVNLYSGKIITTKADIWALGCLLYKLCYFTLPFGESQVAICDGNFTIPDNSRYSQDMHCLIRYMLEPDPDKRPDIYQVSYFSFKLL
Method: as §1, §2, §3

DOT1L (1-416) = biological target: T3, DOT1L (1-416) (Homo sapiens, UniProt Q8TEK3); assay: STD-NMR fragment screening, DOT1L
T3 construct: made in house; host or cells: E. coli BL21 (DE3) pLysS
T3 sequence (Q8TEK3 1-416): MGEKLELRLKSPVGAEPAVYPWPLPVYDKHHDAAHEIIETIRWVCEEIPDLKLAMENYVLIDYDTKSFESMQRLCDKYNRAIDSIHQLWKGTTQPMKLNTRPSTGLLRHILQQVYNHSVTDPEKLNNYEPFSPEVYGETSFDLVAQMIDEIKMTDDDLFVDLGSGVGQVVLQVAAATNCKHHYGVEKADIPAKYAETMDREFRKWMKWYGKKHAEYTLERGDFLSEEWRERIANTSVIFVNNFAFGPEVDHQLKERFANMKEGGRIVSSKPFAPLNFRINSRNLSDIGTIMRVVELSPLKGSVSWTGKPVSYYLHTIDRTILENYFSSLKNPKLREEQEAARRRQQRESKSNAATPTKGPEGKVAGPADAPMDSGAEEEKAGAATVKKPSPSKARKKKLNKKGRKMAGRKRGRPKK
Method: as §1, §2, §3

T1 sequence (P14902 whole entry, the tested form may be a part): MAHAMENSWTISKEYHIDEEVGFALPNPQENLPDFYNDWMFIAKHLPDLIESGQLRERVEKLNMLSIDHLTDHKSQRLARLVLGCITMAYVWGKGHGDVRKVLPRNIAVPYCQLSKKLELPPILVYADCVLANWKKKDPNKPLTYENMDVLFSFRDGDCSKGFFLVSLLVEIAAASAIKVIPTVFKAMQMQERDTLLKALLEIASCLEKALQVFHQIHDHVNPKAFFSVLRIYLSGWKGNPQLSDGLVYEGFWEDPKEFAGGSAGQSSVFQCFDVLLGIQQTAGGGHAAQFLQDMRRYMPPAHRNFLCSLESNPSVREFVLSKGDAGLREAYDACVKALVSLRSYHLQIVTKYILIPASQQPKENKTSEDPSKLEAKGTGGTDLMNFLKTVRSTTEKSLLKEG

SMILES | IDO1 (STD-NMR hit flag) (IDO1 (1-435)) | CAMK1G (STD-NMR hit flag) (CAMK1G (1-320)) | AAK1 (STD-NMR hit flag) (AAK1 (121-471)) | DOT1L (STD-NMR hit flag) (DOT1L (1-416))
NCc1cc(Cl)cc(Cl)c1N [Fragment B02290090] | 0 | 0 | 0 | 0
COc1ccc(I)cc1CNCCO [Fragment B02290112] | 0 | 0 | 0 | 0
Brc1cnn(-c2nnn[nH]2)c1 [Fragment B02290113] | 1 | 0 | 1 | 0
CC(C(=O)O)n1cc(Br)cn1 (stereo not shown) [Fragment B02290114] | 0 | 0 | 0 | 0
O=C(c1cc(Br)c[nH]1)N1CCOCC1 [Fragment B02290115] | 0 | 1 | 0 | 0
Cn1ncc(Br)c1C(=O)O [Fragment B02290116] | 1 | 0 | 0 | 0
NCCCn1cc(Cl)cn1 [Fragment B02290117] | 0 | 0 | 0 | 0
NC(=O)c1nc(Cl)n[nH]1 [Fragment B02290118] | 0 | 0 | 0 | 0
O=C(O)CCc1nc(Br)n[nH]1 [Fragment B02290119] | 0 | 0 | 0 | 0
Cn1nc(Br)nc1NN [Fragment B02290120] | 0 | 1 | 0 | 1
Clc1ccc(CN2CCNCC2)cn1 [Fragment B02290121] | 0 | 0 | 0 | 0
Brc1csc(CN2CCNCC2)c1 [Fragment B02290122] | 0 | 0 | 0 | 0
Cc1c(Cl)c([N+](=O)[O-])nn1CC(=O)O [Fragment B02290123] | 1 | 0 | 0 | 0
O=C(c1ccc(Br)cc1)C12CN3CN(CN(C3)C1)C2 [Fragment B02290401] | 0 | 0 | 0 | 0
O=S(=O)(CCO)c1n[nH]c(Cl)n1 [Fragment B02290402] | 0 | 0 | 0 | 0
COCn1nc(Br)nc1C(N)=O [Fragment B02290403] | 0 | 0 | 1 | 0
